Literature values, collected in US20210145778A1, “Stable Liquid Compositions of Melphalan” (Orbicular Pharmaceutical Technologies Pvt. Ltd., priority 2018, published 2021).

In the case of N[C@@H](Cc1ccc(N(CCCl)CCCl)cc1)C(=O)O [Melphalan, L-phenylalanine mustard], the “Stability in aqueous solutions” value is listed as “poor stability”.
